Reference: ChEMBL document CHEMBL6182944, “Substrate Specificity of the Organic Cation Transporters MATE1 and MATE2K and Functional Overlap with OCT1 and OCT2” (J Med Chem, 2025)

Key:
[1] = molecular target: T1, MATE1 (Homo sapiens, UniProt Q96FL8); assay: in vitro
T1 sequence (Q96FL8 whole entry): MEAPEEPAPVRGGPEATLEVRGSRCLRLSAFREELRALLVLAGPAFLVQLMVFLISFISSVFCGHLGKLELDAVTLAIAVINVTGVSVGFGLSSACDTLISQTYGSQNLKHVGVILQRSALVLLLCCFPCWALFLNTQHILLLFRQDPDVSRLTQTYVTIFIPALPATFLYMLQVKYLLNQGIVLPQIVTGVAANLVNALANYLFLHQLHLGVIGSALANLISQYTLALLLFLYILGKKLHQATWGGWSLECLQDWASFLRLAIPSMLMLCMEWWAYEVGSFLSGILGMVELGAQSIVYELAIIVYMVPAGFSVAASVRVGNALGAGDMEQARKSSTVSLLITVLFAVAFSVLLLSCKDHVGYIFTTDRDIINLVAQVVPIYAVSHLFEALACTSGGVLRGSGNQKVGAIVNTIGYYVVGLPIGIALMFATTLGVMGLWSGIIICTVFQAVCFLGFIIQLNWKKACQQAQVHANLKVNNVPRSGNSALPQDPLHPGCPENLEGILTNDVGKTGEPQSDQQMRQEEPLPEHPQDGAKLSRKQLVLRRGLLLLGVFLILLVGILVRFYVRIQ

[2] = molecular target: T2, Multidrug and toxin extrusion protein 2 (Homo sapiens, UniProt Q86VL8); assay: Substrate activity at MATE2-K (unknown origin) expressed in HEK293 cells assessed as intrinsic clearance by measuring ratio of Vmax (maximum transport velocity) over Km measured per mg of protein by HPLC-MS/MS analysis; format: cell-based
T2 sequence (Q86VL8 whole entry): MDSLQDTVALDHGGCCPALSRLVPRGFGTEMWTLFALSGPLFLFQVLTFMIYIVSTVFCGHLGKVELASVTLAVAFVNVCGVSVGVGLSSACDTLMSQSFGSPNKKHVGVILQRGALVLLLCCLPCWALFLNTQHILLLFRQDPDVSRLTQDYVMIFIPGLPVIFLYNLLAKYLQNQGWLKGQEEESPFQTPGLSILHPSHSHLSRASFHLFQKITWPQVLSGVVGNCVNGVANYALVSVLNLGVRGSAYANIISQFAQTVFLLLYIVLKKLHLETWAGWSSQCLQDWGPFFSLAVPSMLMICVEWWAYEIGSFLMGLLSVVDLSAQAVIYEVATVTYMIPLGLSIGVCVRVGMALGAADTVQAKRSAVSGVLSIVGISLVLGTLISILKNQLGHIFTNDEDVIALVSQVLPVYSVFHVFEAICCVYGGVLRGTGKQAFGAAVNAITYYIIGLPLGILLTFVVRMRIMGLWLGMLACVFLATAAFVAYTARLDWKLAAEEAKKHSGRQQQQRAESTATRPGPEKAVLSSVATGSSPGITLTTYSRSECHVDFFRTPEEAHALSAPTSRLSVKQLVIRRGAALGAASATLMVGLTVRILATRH

[3] = molecular target: T2, Multidrug and toxin extrusion protein 2; assay: Substrate activity at MATE2-K (unknown origin) expressed in HEK293 cells assessed as increase in uptake by HPLC-MS/MS analysis; format: cell-based
[4] = molecular target: T3, MATE2-K (Homo sapiens, UniProt Q86VL8); assay: in vitro
T3 sequence (Q86VL8 whole entry): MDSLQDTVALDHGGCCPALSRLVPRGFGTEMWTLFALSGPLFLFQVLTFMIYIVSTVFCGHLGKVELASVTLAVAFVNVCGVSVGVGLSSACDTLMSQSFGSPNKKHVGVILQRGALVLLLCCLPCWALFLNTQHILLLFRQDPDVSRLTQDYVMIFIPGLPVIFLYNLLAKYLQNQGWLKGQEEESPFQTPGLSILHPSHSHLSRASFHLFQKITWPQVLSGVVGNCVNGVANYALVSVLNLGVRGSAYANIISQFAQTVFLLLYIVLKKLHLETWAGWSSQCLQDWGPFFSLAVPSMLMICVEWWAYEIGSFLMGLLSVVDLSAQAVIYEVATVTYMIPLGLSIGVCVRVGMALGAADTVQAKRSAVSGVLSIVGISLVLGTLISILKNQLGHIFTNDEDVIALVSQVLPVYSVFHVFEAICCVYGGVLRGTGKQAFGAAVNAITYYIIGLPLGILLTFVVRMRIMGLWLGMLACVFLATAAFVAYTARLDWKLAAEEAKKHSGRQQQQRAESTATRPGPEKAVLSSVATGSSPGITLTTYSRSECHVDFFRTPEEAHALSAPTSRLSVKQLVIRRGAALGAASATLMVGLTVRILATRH

[5] = molecular target: T4, Multidrug and toxin extrusion protein 1 (Homo sapiens, UniProt Q96FL8); assay: Substrate activity at MATE1 (unknown origin) expressed in HEK293 cells assessed as increase in uptake by HPLC-MS/MS analysis; format: cell-based
T4 sequence (Q96FL8 whole entry): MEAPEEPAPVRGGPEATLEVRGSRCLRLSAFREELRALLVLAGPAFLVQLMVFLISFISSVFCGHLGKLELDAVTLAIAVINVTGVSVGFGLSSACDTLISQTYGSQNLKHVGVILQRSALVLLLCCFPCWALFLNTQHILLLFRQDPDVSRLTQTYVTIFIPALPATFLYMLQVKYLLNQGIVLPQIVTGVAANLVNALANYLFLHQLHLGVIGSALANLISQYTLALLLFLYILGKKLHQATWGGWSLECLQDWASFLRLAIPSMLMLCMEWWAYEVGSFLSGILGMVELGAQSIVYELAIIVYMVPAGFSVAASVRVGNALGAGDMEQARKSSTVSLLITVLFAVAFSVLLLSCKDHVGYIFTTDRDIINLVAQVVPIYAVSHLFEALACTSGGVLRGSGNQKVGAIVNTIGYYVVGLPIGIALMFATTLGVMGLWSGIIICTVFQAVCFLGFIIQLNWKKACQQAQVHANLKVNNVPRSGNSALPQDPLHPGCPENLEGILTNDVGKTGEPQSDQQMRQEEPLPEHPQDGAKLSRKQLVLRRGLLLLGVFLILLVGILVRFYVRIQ

[6] = molecular target: T4, Multidrug and toxin extrusion protein 1; assay: Substrate activity at MATE1 (unknown origin) expressed in HEK293 cells assessed as Vmax (maximum transport velocity) by HPLC-MS/MS analysis; format: cell-based
[7] = molecular target: T4, Multidrug and toxin extrusion protein 1; assay: Substrate activity at MATE1 (unknown origin) expressed in HEK293 cells assessed as intrinsic clearance by measuring ratio of Vmax (maximum transport velocity) over Km measured per mg of protein by HPLC-MS/MS analysis; format: cell-based
[8] = molecular target: T2, Multidrug and toxin extrusion protein 2; assay: Substrate activity at MATE2-K (unknown origin) expressed in HEK293 cells assessed as Vmax (maximum transport velocity) by HPLC-MS/MS analysis; format: cell-based
[9] = molecular target: T3, MATE2-K; assay: (§1) Substrate activity at MATE2-K (unknown origin) expressed in HEK293 cells assessed as substrate concentration to achieve half of Vmax (maximum transport velocity) measured per mg of protein by HPLC-MS/MS analysis; format: cell-based; settings: HEK293 cells expressing MATE2-K
[10] = substrate: CN(C)CCc1c[nH]c2ccc(C[C@H]3COC(=O)N3)cc12; assay: not read
[11] = substrate: CNC[C@H](O)c1ccc(O)c(O)c1; assay: not read
[12] = substrate: Cc1ncc(CO)c(CO)c1O; assay: not read
[13] = substrate: Cc1ncc(C[n+]2csc(CCO)c2C)c(N)n1; assay: not read
[14] = substrate: Nc1nc(=O)n([C@@H]2CS[C@H](CO)O2)cc1F; assay: not read
[15] = substrate: NCCc1ccc(O)c(O)c1; assay: not read
[16] = substrate: CC(C)NC[C@@H](O)COc1ccc(CC(N)=O)cc1; assay: not read
[17] = substrate: CC(CCc1ccc(O)cc1)NCCc1ccc(O)c(O)c1; assay: as §1; format: cell-based, Homo sapiens
[18] = substrate: C[N+]1(CC2CC2)CC[C@]23c4c5ccc(O)c4O[C@H]2C(=O)CC[C@@]3(O)[C@H]1C5; assay: as §1; format: cell-based, Homo sapiens
[19] = substrate: CN(C)C(=O)Oc1cccc([N+](C)(C)C)c1; assay: as §1; format: cell-based, Homo sapiens
[20] = substrate: c1c2c(cc3c1OCO3)-c1cc3ccc4c(c3c[n+]1CC2)OCO4; assay: as §1; format: cell-based, Homo sapiens
[21] = substrate: CCN1CCCC1CNC(=O)c1cc(S(=O)(=O)CC)c(N)cc1OC; assay: as §1; format: cell-based, Homo sapiens
[22] = substrate: COCCn1c2c([n+](Cc3cnccn3)c1C)C(=O)c1ccccc1C2=O; assay: as §1; format: cell-based, Homo sapiens
[23] = substrate: C[C@H]1N=C(N(C)C)N=C(N)N1; assay: as §1; format: cell-based, Homo sapiens
[24] = HEK293 cells expressing MATE2-K

For COCCn1c2c([n+](Cc3cnccn3)c1C)C(=O)c1ccccc1C2=O [SEPANTRONIUM], the uptake ratio at 1 min, 2.5 µM ([1]; HEK293 cells expressing MATE1) was greater than 2, the CL [2] was 9.19 µL/min and the Activity [3] was “Dose-dependent-effect”. For the same molecule, the uptake ratio at 1 min, 2.5 µM [4, 24] was greater than 2, the Activity [5] was “Dose-dependent-effect” and the Vmax [6] was 304 pmol/min. The CL [7] was 3.76 µL/min.

CN(C)CCc1c[nH]c2ccc(C[C@@H]3COC(=O)N3)cc12 gave a Vmax [8] of 992 pmol/min, a CL [2] of 54.2 µL/min and a Vmax [6] of 2624 pmol/min. For the same molecule, the CL [7] was 94.5 µL/min and the Km [9] was 18.3 µM.

In the case of CN(C)C(=O)Oc1cccc([N+](C)(C)C)c1 [NEOSTIGMINE], the uptake ratio at 1 min, 2.5 µM ([1]; HEK293 cells expressing MATE1) is reported as greater than 2, the CL [2] is reported as 8.14 µL/min and the Activity [3] is reported as “Dose-dependent-effect”. The uptake ratio at 1 min, 2.5 µM [4, 24] was greater than 2, the Activity [5] was “Dose-dependent-effect” and the Vmax [6] was 7255 pmol/min. For the same molecule, the CL [7] was 45.2 µL/min.

For N=C(N)c1ccc(OCCCCCOc2ccc(C(=N)N)cc2)cc1 [PENTAMIDINE], the Activity [3] was “Dose-dependent-effect” and the Activity [5] was “Dose-dependent-effect”.

In the case of Cc1ncc(C[n+]2csc(CCO)c2C)c(N)n1 [THIAMINE ION], the uptake ratio at 1 min, 2.5 µM ([1]; hek293) is reported as greater than 2, the CL [2] is reported as 6.32 µL/min and the Activity [3] is reported as “Dose-dependent-effect”. For the same molecule, the uptake ratio at 1 min, 2.5 µM ([4]; hek293) was greater than 2, the Activity [5] was “Dose-dependent-effect” and the Vmax [6] was 599 pmol/min. For the same molecule, the CL [7] was 34.9 µL/min.

CN[C@@H]1CCc2[nH]c3ccc(C(N)=O)cc3c2C1 [FROVATRIPTAN] was tested, and the uptake ratio at 1 min, 2.5 µM ([1]; hek293) was greater than 2, the Vmax [8] was 869 pmol/min and the CL [2] was 77.8 µL/min. The Activity [3] was “Dose-dependent-effect”, the uptake ratio at 1 min, 2.5 µM ([4]; hek293) was greater than 2 and the Activity [5] was “Dose-dependent-effect”. It also gave a Vmax [6] of 4568 pmol/min and a CL [7] of 64.9 µL/min.

For O=C(O)c1cn(C2CC2)c2cc(N3CCNCC3)c(F)cc2c1=O [CIPROFLOXACIN], the Activity [3] was “Dose-dependent-effect” and the Activity [5] was “Dose-dependent-effect”.

With c1c2c(cc3c1OCO3)-c1cc3ccc4c(c3c[n+]1CC2)OCO4 [COPTISINE] the uptake ratio at 1 min, 2.5 µM ([1]; HEK293 cells expressing MATE1) was greater than 2, the Activity [3] was “Dose-dependent-effect” and the uptake ratio at 1 min, 2.5 µM [4, 24] was greater than 2. For the same molecule, the Activity [5] was “Dose-dependent-effect” and the Vmax [6] was 2901 pmol/min.

B1: Multidrug and toxin extrusion protein 2 (Homo sapiens) (protein)
chain: MDSLQDTVALDHGGCCPALSRLVPRGFGTEMWTLFALSGPLFLFQVLTFMIYIVSTVFCGHLGKVELASVTLAVAFVNVCGVSVGVGLSSACDTLMSQSFGSPNKKHVGVILQRGALVLLLCCLPCWALFLNTQHILLLFRQDPDVSRLTQDYVMIFIPGLPVIFLYNLLAKYLQNQGWLKGQEEESPFQTPGLSILHPSHSHLSRASFHLFQKITWPQVLSGVVGNCVNGVANYALVSVLNLGVRGSAYANIISQFAQTVFLLLYIVLKKLHLETWAGWSSQCLQDWGPFFSLAVPSMLMICVEWWAYEIGSFLMGLLSVVDLSAQAVIYEVATVTYMIPLGLSIGVCVRVGMALGAADTVQAKRSAVSGVLSIVGISLVLGTLISILKNQLGHIFTNDEDVIALVSQVLPVYSVFHVFEAICCVYGGVLRGTGKQAFGAAVNAITYYIIGLPLGILLTFVVRMRIMGLWLGMLACVFLATAAFVAYTARLDWKLAAEEAKKHSGRQQQQRAESTATRPGPEKAVLSSVATGSSPGITLTTYSRSECHVDFFRTPEEAHALSAPTSRLSVKQLVIRRGAALGAASATLMVGLTVRILATRH
Work on B1 yielded a Km [10] of 94.5 µM, a Vmax [10] of 0.00166 µmol/min and a Km [11] of 1510 µM. For the same molecule, the Vmax [11] was 0.00297 µmol/min, the Km [12] was 495 µM and the Vmax [12] was 0.000593 µmol/min. The Vmax [13] was 0.000109 µmol/min, the Km [14] was 873 µM and the Vmax [14] was 0.00263 µmol/min. The Km [15] was 961 µM, the Vmax [15] was 0.00122 µmol/min and the Km [16] was 181 µM. For the same molecule, the Vmax [16] was 0.00296 µmol/min, the Km [17] was 86.4 µM and the Vmax [17] was 0.000493 µmol/min. For the same molecule, the Km [18] was 86.8 µM, the Vmax [18] was 4.16e-05 µmol/min and the Km [19] was 385 µM. It also gave a Vmax [19] of 0.00314 µmol/min, a Km [20] of 1.88 µM and a Vmax [20] of 0.000246 µmol/min. The Km [21] was 39.9 µM, the Vmax [21] was 0.00071 µmol/min and the Km [22] was 8.54 µM. For the same molecule, the Vmax [22] was 7.85e-05 µmol/min, the Km [23] was 81.6 µM and the Vmax [23] was 0.00281 µmol/min.
